This is an account of results in a melting point compilation (Tetko et al.; mined from patent text by program, amines drawn as free bases though some values may be those of a salt).

SMILES strings stand for the structures.

For the compound `CC(C)(C)c1cc(CC(C)(C)C2OCCS2)cc(C(C)(C)C)c1O` (centres undefined), the melting point (as a rule, the temperature, or range, at which the solid turns liquid) worked out at 77 °C.
Then `CCOC(=O)c1nc2ccccn2c1S(N)(=O)=O`, with 166 to 168 °C.
For `Cc1ccc(Cl)cc1N1CN(C(C)(C)C)CN(C)C1=S`, the melting point is 130 to 132 °C.
For the compound `CCOC(=O)C(C)c1ccc(O)c(NC(C)=O)c1` (centres undefined), the melting point was in the range of 137 to 141 °C.
Then `Cc1cc(Oc2nc(-c3ccccc3)ns2)c(C)cc1N=CN(C)C`, with 100 to 105 °C; and `O=C1N=C(N2CCOCC2)SC1=Cc1ccc(OC(F)(F)F)c(-c2cc(F)c(O)c(C34CC5CC(CC(C5)C3)C4)c2)c1`, with 238 °C.
Then `CC1(c2ccc(F)cc2)OC(C=Cc2ccccn2)=CC1=O` (centres undefined), with 70 to 72 °C; and `Cc1cnc(NS(=O)(=O)c2cccc(Cl)c2Cl)c(OCc2ccco2)n1`, with 127 to 129 °C.
Then `O=C(c1ccc(F)cc1)c1noc(CN2CCN(c3ccccc3)CC2)n1`, with 72 to 74 °C; and `CC(C)(C)c1ccc(NC(=O)OCC2(COC(=O)Nc3ccc(C(C)(C)C)cc3)CSc3ccccc3C2=O)cc1`, with 78 to 85 °C.
`CC(C)Cc1ccc(CCOC(=O)c2cc(O)c3c(c2)C(=O)c2cccc(O)c2C3=O)cc1` returned a melting point of 117 to 121 °C.
Compound `Cc1ccccc1N(CC(=O)N(C)c1ccccc1)C(=O)CN1C(=O)c2ccccc2C1=O` showed a melting point of 120 °C.
`CC1Oc2ccccc2C(O)C1n1ccnc1` (centres undefined) displayed a melting point of 160 to 175 °C.
`COc1ccc(C2Sc3c(ccc4ccccc34)N(CCN(C)C)C(=O)C2OC(=O)c2ccc(O)c(O)c2)cc1` (centres undefined) had a melting point of 146 to 148 °C.
Then `CC1CCN2C(=N1)C(=O)c1cc(S(=O)(=O)N3CCCC3)ccc12` (centres undefined), with 152 to 153 °C.
Then `Cc1cc(C(=O)O)cc(C)c1N=C1NCCN1`, with 116 to 117 °C; and `COc1ccc(-c2cc(C)c3occc3c2)cc1`, with 82 to 83 °C; and `O=C(Oc1ccccc1)N1CCC(S(=O)(=O)c2ccccc2F)CC1`, with 160 to 161 °C.
Then `Cc1cc(-c2cccc(C(F)(F)F)c2)c2ncc(OC(F)F)nc2c1`, with 105 to 106 °C.
The compound `CC(=O)c1nc(-c2ccc(Cl)nc2)[nH]c1C` came in with a melting point of 239 to 240 °C.
Take `O=C1C=CCC2=C3C(=CCN3C13COc1cc4c(cc13)OCO4)CCC2` (centres undefined): the melting point lay in the range of 176 to 177 °C.
Then `Cc1c(C(=O)CN2CCCCC2)c(C)n(C)c1C(=O)c1ccc(Cl)cc1Cl`, with 177 to 179 °C.
Then `O=C(NCCN1CCOCC1)Nc1nc2ccc(OC(c3c(Cl)cccc3Cl)C(F)(F)F)cc2s1` (centres undefined), with 150 to 160 °C; and `O=C(O)CCCCCCCCn1nnc(-c2ccccc2)c1-c1ccccc1`, with 86 to 87 °C.
In turn, `O=C(NC1CCN(CCCCc2cc(F)cc3c2-c2ccc(F)cc2C3C(=O)NCC(F)(F)F)CC1)c1ccccc1` (centres undefined) displayed a melting point of 177 to 179 °C.
Then `CC(C)(C)OC(=O)N1CCc2c(n(CCO)c3cc(Cl)c(Cl)cc23)CC1`, with 130 to 133 °C.
Then `COC(=O)[C@H](CCCC(OC)OC)N1C(=O)c2ccccc2C1=O`, with 69 to 70 °C.
Then `CCCCC(CC)Cn1c2cc(Br)ccc2c2ccc(Br)cc21` (centres undefined), with 95 to 97 °C.
`C[C@H](N)C(c1ccccc1)c1ccccc1` displayed a melting point of 76 to 77 °C.
Then `O=C(O)c1cc(Cl)c(Cl)c(Cl)n1`, with 115 to 120 °C.
For the compound `CCOC(=O)c1c(C)nc2c3cccc(Cl)c3ccn12`, the melting point fell in the range of 140 to 141 °C.
As for `N#Cc1cc(Cn2cncn2)ccc1-c1ccc(OS(N)(=O)=O)cc1`, the melting point was 157 to 160 °C.
Then `CCOC(=O)Cc1nnc(-c2ccccn2)[nH]c1=O`, with 136 to 137 °C.
Then `CN(C)CCCCCCCCCCC(=N)NC(=S)Nc1ccc(Cl)cc1`, with 130 to 132 °C; and `COC(=O)C1=C(C)NC(C)=C(C(=O)OCCCCCCCCCCO)[C@H]1c1cccc2nonc12`, with 120 °C; and `Nc1c(NC(=O)CCl)ccc2c1C(=O)c1ccccc1C2=O`, with 193 to 194 °C.
In turn, `Nc1nc(COc2ccc(Cl)c(Cl)c2)nc2nccnc12` yielded a melting point of 261 to 263 °C.
Then `Cn1ccc2ccc(NC(=O)/C=C/c3ccc(C(C)(C)C)cc3)cc21`, with 95 °C; and `CCOC(=O)c1ncn(C2OC(COC(=O)c3ccccc3)C(OC(=O)c3ccccc3)C2OC(=O)c2ccccc2)c1C(=O)OCC` (centres undefined), with 134 to 136 °C; and `Cc1nc(CNc2c(C)cccc2C)n[nH]1`, with 125 to 126 °C.
In turn, `CC[C@H]1[C@H](O)CN1c1cc2c(cc1F)c(=O)c(C(=O)O)cn2C1CC1` (relative stereo) displayed a melting point of 250 to 255 °C.
Then `Fc1ccc(Cn2c(NC3CCN(CCc4ccccc4)CC3)nc3ccc(F)cc32)cc1`, with 178 °C; and `Cc1c(NC(=O)c2ccc(OC[C@@H]3CCCO3)cc2)ccc2cc(CNCC(C)C)cnc12`, with 142 to 143 °C; and `CC(C)CC(N=O)C(=O)NC(CC(C)C)C(=O)O` (centres undefined), with 134 to 139 °C.
For the compound `c1cc(-c2csnn2)ccn1`, the melting point is 121 to 123 °C.
Then `Cc1ccccc1Nc1nc2ccc(CC(=O)O)cc2o1`, with 199 to 200 °C; and `CCOC(=O)c1ccc2c(S)cccn2c1=O`, with 111 to 113 °C; and `O=C(O)c1ccc(-c2cc(-c3ccccc3)no2)cc1`, with > 300 °C.
Then `COc1ccc(N=C2SC(=CC(=O)O)C(=O)N2c2ccc(OC)cc2)cc1`, with 184 to 187 °C; and `O=C(CCc1ccc(Cl)cc1)N1CCC(CCO)CC1`, with 88 to 90 °C.
Then `COc1ccc(C(=O)/C=C/c2c(-c3ccc(F)cc3)nc3sccn23)cc1OC`, with 221 to 223 °C; and `N#Cc1cc(Cl)ncc1Cl`, with 55 to 58 °C.
In turn, `O=C[C@H](Cc1c[nH]c2ccccc12)NC(=O)[C@H](Cc1ccccc1)NC(=O)OCc1ccccc1` had a melting point of 74 to 77 °C.
Then `NC(c1ccccc1)C12CC(CN1)C2` (centres undefined), with 46.5 to 47 °C.
The compound `CCN(C(=O)CCCCc1nnnn1C1CCCCC1)C1CCCCC1` gave a melting point of 92 to 95 °C.
The compound `c1ccc(COC[C@H](CP(c2ccccc2)c2ccccc2)P(c2ccccc2)c2ccccc2)cc1` registered a melting point of 88 °C.
The compound `CCC(Oc1ccc(C(C)(C)CC)cc1C(C)(C)CC)C(=O)Nc1cccc(C(=O)NC2=NN(c3c(Cl)cc(Cl)cc3Cl)C(=O)C2N2CCCCC2)c1` (centres undefined) returned a melting point of 186 to 190 °C.
Then `C=CCC(CC)(CC)C(=O)O[C@H]1C[C@H](O)C=C2C=C[C@H](C)[C@H](CC[C@@H]3C[C@@H](O)CC(=O)O3)[C@H]21`, with 107 to 108 °C; and `Clc1ccc2cc3ccccc3cc2c1`, with 220 to 221 °C.
For the compound `CCNC(=O)CCCNC(=O)OC(C)(C)C`, the melting point lay in the range of 82 to 83 °C.
`CCOC(=O)/C=C(C)/C(F)=C/C=C(C)/C=C/c1c(Cl)cc(OC)c(Cl)c1Cl` displayed a melting point of 140 to 142 °C.
Compound `CCN1CCC(CNC(=O)c2cc(Cl)c(N)[nH]c2=O)CC1` gave a melting point of 136 to 140 °C.
For the compound `CCCCCCCCCn1ccc(C#N)cc1=O`, the melting point is 46 to 48 °C.
Then `CC1(C)c2cc(C#N)ccc2OC1N1CCOCC1` (centres undefined), with 105 to 107 °C.
Then `COc1ccc(C=C2NC(=O)NC2=O)cc1`, with 242 to 244 °C.
The compound `CCCCN1C[C@H](CO)[C@@H](O)[C@H](O)C1` had a melting point of 94 to 95 °C.
Then `O=C(Cn1c(-c2ccncc2)ncc(NC(=O)OCc2ccccc2)c1=O)NC(Cc1ccccc1)C(=O)C(F)(F)F` (centres undefined), with 182 to 185 °C; and `CC(C(=O)O)c1cc(CC(=O)O)c(-c2ccccc2)s1` (centres undefined), with 145 to 146 °C.
Consider `COCCN1CCc2cc(Nc3ncc(Cl)c(Nc4ccccc4NS(C)(=O)=O)n3)c(OC)cc2CC1`, for which the melting point was 107 to 112 °C.
Then `COc1ccc(CCCS(=O)(=O)c2ccc(S(N)(=O)=O)s2)cc1`, with 136 to 138 °C; and `CCS(=O)(=O)N(C)Cc1ccc2[nH]cc(CCCN3CCN(c4ncncc4OC)CC3)c2c1`, with 113 to 115 °C; and `O=C(O)c1ccc2c(c1)Sc1ccccc1C=C2`, with 251 to 254 °C.
With `CCN(C/C=C/C#CC(C)(C)C)Cc1cccc(N(C)Cc2cccc(-c3ccsc3)c2)c1`, the melting point lay within 51 to 52 °C.
Then `CC=C(C)c1c(-c2ccc(S(C)(=O)=O)cc2)cnn(CC(F)(F)F)c1=O`, with 175 to 180 °C.
`Cn1ccc(C(=O)c2ccccc2)c1` returned a melting point of 90 to 93 °C.
Then `CCOCC1OC(n2cnc3c(NCc4cccc(I)c4)ncnc32)C(O)C1O` (centres undefined), with 164 to 166 °C; and `Cc1cccc(Nc2ccccc2C(=O)OCC(=O)N(C)C)c1C`, with 85 to 86 °C.
Then `CC(C)Cn1cc(C(N)=O)c(N)n1`, with 154 to 158 °C; and `C1=Nc2cccc(-c3ccoc3)c2C12COc1cc3c(cc12)OCO3` (centres undefined), with 270 to 272 °C; and `CC1C(=O)N(CC(N)=O)C(C)(C)N1C(=O)CN` (centres undefined), with 118 °C.
The compound `Cc1ccc(C(=O)c2cc3cc(Br)ccc3n2C)cc1` showed a melting point of 169 to 171 °C.
The compound `COc1ccc(NN=C2C(=O)Nc3ccc(C4=NNC(=O)SC4C)cc32)cc1` (centres undefined) came in with a melting point of 273 °C.
Then `NCC1Cc2cc(C(F)(F)F)cc(-c3ccc(F)c(Cl)c3)c2O1` (centres undefined), with > 250 °C; and `Cc1cc(C)c2ncn(/C=C/C(=O)O)c(=O)c2c1`, with 284 to 288 °C; and `COC(=O)c1sccc1S(=O)(=O)NC(=O)Nc1nc(OC)cc(OC)n1`, with 191 to 193 °C.
For the compound `CCCCCCCCCCCCCCOc1cc(OCCCOc2ccc(OCc3ccccc3)cc2)cc(C(=O)O)c1`, the melting point lay in the range of 77 to 79 °C.
Compound `O=C(Cc1ccc(Cl)cc1)c1ccc(Cl)cc1Cl` came in with a melting point of 65 to 66 °C.
Then `COC(=O)C[C@H](O)C[C@H](O)CCc1c(-c2ccc(F)cc2)c(-c2ccccc2)c(C(=O)Nc2cccc(S(N)(=O)=O)c2)n1C(C)C`, with 80 to 81 °C; and `CC1(C)CC(O)CC(C)(C)N1OC1CCCCC1`, with 74 to 78 °C.
